Results taken from the NIST ThermoML archive (doi:10.1016/j.jct.2018.07.012).
± gives the expanded uncertainty stated by the source.

Assay: mn = molality of the nth substance listed, in mol/kg
Conditions: m2 = 0; for surface tension liquid-gas: Maximal bubble pressure

O [water] + CC(=O)[O-].CCCn1cc[n+](C)c1
Conditions	surface tension liquid-gas [mN/m]
288.15 K	73.5 ± 0.5
293.15 K	72.8 ± 0.5
298.15 K	72 ± 0.5
303.15 K	71.2 ± 0.5
308.15 K	70.4 ± 0.5
313.15 K	69.6 ± 0.5
318.15 K	68.7 ± 0.5

Conditions	mass density [kg/m3]
308.15 K, 100 kPa, Liquid, Vibrating tube method	994.06 ± 1
